Drawing on US20230279025A1, “KRAS G12D INHIBITORS” (Mirati Therapeutics, Inc., priority 2020, published 2023), this text covers IC50 for 24 compounds.

The test addresses KRas G12D (Homo sapiens (Human), UniProt P01116, G12D). The test is described as follows: KRas G12D Binding Assay (TR-FRET displacement of Cy5 labelled tracer). To be noted: GDP-loaded KRAS G12D (amino acids 1:169), 60 minute incubation at 22° C. The procedure:
After a 60 minute incubation at 22° C., the reaction was measured using a PerkinElmer EnVision multimode plate reader via TR-FRET dual wavelength detection, and the percent of control (POC) calculated using a ratiometric emission factor. […] The POC values were fit to a 4-parameter logistic curve and the IC50 value was determined as the concentration where the curve crosses 50 POC.
ND stands for “not determined.”

Usually IC50 stands for the concentration at which inhibition is half-maximal.

Chain of KRas G12D (P01116 other isoform, or with tags, fused parts or gaps G12D): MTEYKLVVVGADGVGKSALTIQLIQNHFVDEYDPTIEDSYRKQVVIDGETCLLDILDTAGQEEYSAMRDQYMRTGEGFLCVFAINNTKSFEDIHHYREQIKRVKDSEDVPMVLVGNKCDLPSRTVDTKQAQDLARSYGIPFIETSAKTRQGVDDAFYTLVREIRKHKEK

`Oc1cc(Cl)c(C2CC2)c(-c2ncc3c(N4C[C@H]5CC[C@@H](C4)N5)nc(OC[C@@]45CCCN4C[C@H](F)C5)nc3c2F)c1` [Example 283, 3-(4-((1R,5S)-3,8-diazabicyclo[3.2.1]octan-3-yl)-8-fluoro-2-(((2R,7aS)-2-fluorohexahydro-1H-pyrrolizin-7a-yl)methoxy)pyrido[4,3-d]pyrimidin-7-yl)-5-chloro-4-cyclopropylphenol] returned an IC50 of 0.7 nM.

Take `Oc1cc(Cl)c(C(F)(F)F)c(-c2ncc3c(N4C[C@H]5CC[C@@H](C4)N5)nc(OC[C@@]45CCCN4C[C@H](F)C5)nc3c2F)c1` [Example 284, 3-(4-((1R,5S)-3,8-diazabicyclo[3.2.1]octan-3-yl)-8-fluoro-2-(((2R,7aS)-2-fluorohexahydro-1H-pyrrolizin-7a-yl)methoxy)pyrido[4,3-d]pyrimidin-7-yl)-5-chloro-4-(trifluoromethyl)phenol]: the IC50 worked out at 0.1 nM.

The compound `C[C@@H]1C[C@@H]1c1ccccc1-c1ncc2c(N3C[C@H]4CC[C@@H](C3)N4)nc(OCC34CCCN3CCC4)nc2c1F` [Example 286, 4-((1R,5S)-3,8-diazabicyclo[3.2.1]octan-3-yl)-8-fluoro-2-((hexahydro-1H-pyrrolizin-7a-yl)methoxy)-7-(2-((S,2R)-2-methylcyclopropyl)phenyl)pyrido[4,3-d]pyrimidine] returned an IC50 of 17.2 nM. The value for `C[C@H]1C[C@H]1c1ccccc1-c1ncc2c(N3C[C@H]4CC[C@@H](C3)N4)nc(OCC34CCCN3CCC4)nc2c1F` [Example 287, 4-((1R,5S)-3,8-diazabicyclo[3.2.1]octan-3-yl)-8-fluoro-2-((hexahydro-1H-pyrrolizin-7a-yl)methoxy)-7-(2-((1R,2S)-2-methylcyclopropyl)phenyl)pyrido[4,3-d]pyrimidine] was 90.7 nM; that for `C[C@@H]1C[C@H]1c1ccccc1-c1ncc2c(N3C[C@H]4CC[C@@H](C3)N4)nc(OCC34CCCN3CCC4)nc2c1F` [Example 288, 4-((1R,5S)-3,8-diazabicyclo[3.2.1]octan-3-yl)-8-fluoro-2-((hexahydro-1H-pyrrolizin-7a-yl)methoxy)-7-(2-((1R,2R)-2-methylcyclopropyl)phenyl)pyrido[4,3-d]pyrimidine] was 590 nM. The value for `C[C@H]1C[C@@H]1c1ccccc1-c1ncc2c(N3C[C@H]4CC[C@@H](C3)N4)nc(OCC34CCCN3CCC4)nc2c1F` [Example 289, 4-((1R,5S)-3,8-diazabicyclo[3.2.1]octan-3-yl)-8-fluoro-2-((hexahydro-1H-pyrrolizin-7a-yl)methoxy)-7-(2-((1S,2S)-2-methylcyclopropyl)phenyl)pyrido[4,3-d]pyrimidine] was 218 nM; that for `CC(C)c1c(F)cc(O)cc1-c1ncc2c(N3C[C@H]4CC[C@@H](C3)N4)nc(OC[C@@]34CCCN3C[C@H](F)C4)nc2c1F` [Example 290, 3-(4-((1R,5S)-3,8-diazabicyclo[3.2.1]octan-3-yl)-8-fluoro-2-(((2R,7aS)-2-fluorotetrahydro-1H-pyrrolizin-7a(5H)-yl)methoxy)pyrido[4,3-d]pyrimidin-7-yl)-5-fluoro-4-isopropylphenol] was 2.1 nM. Compound `CC(C)c1c(Cl)cc(O)cc1-c1ncc2c(N3C[C@H]4CC[C@@H](C3)N4)nc(OC[C@@]34CCCN3C[C@H](F)C4)nc2c1F` [Example 291, 3-(4-((1R,5S)-3,8-diazabicyclo[3.2.1]octan-3-yl)-8-fluoro-2-(((2R,7aS)-2-fluorohexahydro-1H-pyrrolizin-7a-yl)methoxy)pyrido[4,3-d]pyrimidin-7-yl)-5-chloro-4-isopropylphenol] returned a half-maximal inhibitory concentration (IC50) of 1.6 nM. The IC50 values of the last two compounds are within 1.5-fold of each other. In the case of `Fc1cccc(-c2ncc3c(N4C[C@H]5CC[C@@H](C4)N5)nc(OCC45CCCN4CCC5)nc3c2F)c1C(F)(F)F` [Example 292, 4-((1R,5S)-3,8-diazabicyclo[3.2.1]octan-3-yl)-8-fluoro-7-(3-fluoro-2-(trifluoromethyl)phenyl)-2-((tetrahydro-1H-pyrrolizin-7a(5H)-yl)methoxy)pyrido[4,3-d]pyrimidine] it was 13.1 nM; in that of `Fc1c(-c2ccccc2C(F)F)ncc2c(N3C[C@H]4CC[C@@H](C3)N4)nc(OCC34CCCN3CCC4)nc12` [Example 293, 4-((1R,5S)-3,8-diazabicyclo[3.2.1]octan-3-yl)-7-(2-(difluoromethyl)phenyl)-8-fluoro-2-((hexahydro-1H-pyrrolizin-7a-yl)methoxy)pyrido[4,3-d]pyrimidine], 692 nM; in that of `Cc1c(F)cccc1-c1ncc2c(N3C[C@H]4CC[C@@H](C3)N4)nc(OCC34CCCN3CCC4)nc2c1F` [Example 294, 4-((1R,5S)-3,8-diazabicyclo[3.2.1]octan-3-yl)-8-fluoro-7-(3-fluoro-2-methylphenyl)-2-((hexahydro-1H-pyrrolizin-7a-yl)methoxy)pyrido[4,3-d]pyrimidine], 620 nM. The compound `CCc1ccccc1-c1ncc2c(N3C[C@H]4CC[C@@H](C3)N4)nc(OCC34CCCN3CCC4)nc2c1F` [Example 295, 4-((1R,5S)-3,8-diazabicyclo[3.2.1]octan-3-yl)-7-(2-ethylphenyl)-8-fluoro-2-((hexahydro-1H-pyrrolizin-7a-yl)methoxy)pyrido[4,3-d]pyrimidine] yielded an IC50 of 192 nM. In the case of `CN(C)c1ccccc1-c1ncc2c(N3C[C@H]4CC[C@@H](C3)N4)nc(OCC34CCCN3CCC4)nc2c1F` [Example 296, 2-(4-((1R,5S)-3,8-diazabicyclo[3.2.1]octan-3-yl)-8-fluoro-2-((hexahydro-1H-pyrrolizin-7a-yl)methoxy)pyrido[4,3-d]pyrimidin-7-yl)-N,N-dimethylaniline] it was 112 nM; in that of `Fc1c(-c2ccccc2C2CC2)ncc2c(N3C[C@H]4CC[C@@H](C3)N4)nc(OCC34CCCN3CCC4)nc12` [Example 297], 88.9 nM.

`CC(C)c1c(Cl)cccc1-c1ncc2c(N3C[C@H]4CC[C@@H](C3)N4)nc(OCC34CCCN3CCC4)nc2c1F` [Example 298, 4-((1R,5S)-3,8-diazabicyclo[3.2.1]octan-3-yl)-7-(3-chloro-2-isopropylphenyl)-8-fluoro-2-((hexahydro-1H-pyrrolizin-7a-yl)methoxy)pyrido[4,3-d]pyrimidine] came in with an IC50 of 8.3 nM. `CC(C)c1c(F)cccc1-c1ncc2c(N3C[C@H]4CC[C@@H](C3)N4)nc(OCC34CCCN3CCC4)nc2c1F` [Example 299, 4-((1R,5S)-3,8-diazabicyclo[3.2.1]octan-3-yl)-8-fluoro-7-(3-fluoro-2-isopropylphenyl)-2-((hexahydro-1H-pyrrolizin-7a-yl)methoxy)pyrido[4,3-d]pyrimidine]: the IC50 amounted to 132 nM.

Consider `CCC(C)c1ccccc1-c1ncc2c(N3C[C@H]4CC[C@@H](C3)N4)nc(OCC34CCCN3CCC4)nc2c1F` (stereo partly drawn) [Example 300, 4-((1R,5S)-3,8-diazabicyclo[3.2.1]octan-3-yl)-7-(2-(sec-butyl)phenyl)-8-fluoro-2-((hexahydro-1H-pyrrolizin-7a-yl)methoxy)pyrido[4,3-d]pyrimidine], for which the half-inhibitory concentration (IC50) turned out to be 768 nM. With `Cc1cccc(-c2ncc3c(N4C[C@H]5CC[C@@H](C4)N5)nc(OCC45CCCN4CCC5)nc3c2F)c1C(C)C` [Example 301, 4-((1R,5S)-3,8-diazabicyclo[3.2.1]octan-3-yl)-8-fluoro-2-((hexahydro-1H-pyrrolizin-7a-yl)methoxy)-7-(2-isopropyl-3-methylphenyl)pyrido[4,3-d]pyrimidine], the IC50 came out at 35.1 nM. This IC50 is about 22-fold lower than that of the compound before. With `Fc1cccc(-c2ncc3c(N4C[C@H]5CC[C@@H](C4)N5)nc(OCC45CCCN4CCC5)nc3c2F)c1OC(F)F` [Example 302, 4-((1R,5S)-3,8-diazabicyclo[3.2.1]octan-3-yl)-7-(2-(difluoromethoxy)-3-fluorophenyl)-8-fluoro-2-((hexahydro-1H-pyrrolizin-7a-yl)methoxy)pyrido[4,3-d]pyrimidine], the IC50 was 43.6 nM.

Consider `Fc1c(-c2ccccc2OC(F)F)ncc2c(N3C[C@H]4CC[C@@H](C3)N4)nc(OCC34CCCN3CCC4)nc12` [Example 303, 4-((1R,5S)-3,8-diazabicyclo[3.2.1]octan-3-yl)-7-(2-(difluoromethoxy)phenyl)-8-fluoro-2-((hexahydro-1H-pyrrolizin-7a-yl)methoxy)pyrido[4,3-d]pyrimidine], for which the IC50 is 357 nM.

Compound `Fc1cccc(-c2ncc3c(N4C[C@H]5CC[C@@H](C4)N5)nc(OCC45CCCN4CCC5)nc3c2F)c1C1CC1` [Example 304, 4-((1R,5S)-3,8-diazabicyclo[3.2.1]octan-3-yl)-7-(2-cyclopropyl-3-fluorophenyl)-8-fluoro-2-((hexahydro-1H-pyrrolizin-7a-yl)methoxy)pyrido[4,3-d]pyrimidine] yielded an IC50 of 29.2 nM. Compared with the last compound, the IC50 is about 12-fold lower. Regarding `CC1(c2ccccc2-c2ncc3c(N4C[C@H]5CC[C@@H](C4)N5)nc(OCC45CCCN4CCC5)nc3c2F)CC1` [Example 305, 4-((1R,5S)-3,8-diazabicyclo[3.2.1]octan-3-yl)-8-fluoro-2-((hexahydro-1H-pyrrolizin-7a-yl)methoxy)-7-(2-(1-methylcyclopropyl)phenyl)pyrido[4,3-d]pyrimidine], the IC50 worked out at 367 nM. In the case of `CC(C)c1ccncc1-c1ncc2c(N3C[C@H]4CC[C@@H](C3)N4)nc(OCC34CCCN3CCC4)nc2c1F` [Example 306, 4-((1R,5S)-3,8-diazabicyclo[3.2.1]octan-3-yl)-8-fluoro-2-((hexahydro-1H-pyrrolizin-7a-yl)methoxy)-7-(4-isopropylpyridine-3-yl)pyrido[4,3-d]pyrimidine] it was 260 nM; in that of `CC(C)c1ncccc1-c1ncc2c(N3C[C@H]4CC[C@@H](C3)N4)nc(OCC34CCCN3CCC4)nc2c1F` [Example 307, 4-((1R,5S)-3,8-diazabicyclo[3.2.1]octan-3-yl)-8-fluoro-2-((hexahydro-1H-pyrrolizin-7a-yl)methoxy)-7-(2-isopropylpyridin-3-yl)pyrido[4,3-d]pyrimidine], 3160 nM.
